Test results published in patent US10722501B2 (BAYER AKTIENGESELLSCHAFT, priority 2016, dated 2020).

Target: T1, recombinant full-length human prolyl endopeptidase (PREP) (Homo sapiens, UniProt P48147)
T1 construct: To recombinant full-length human prolyl endopeptidase (PREP, R&D-Systems, 4308-SE); purchased R&D-Systems 4308-SE
T1 sequence (P48147 1-710): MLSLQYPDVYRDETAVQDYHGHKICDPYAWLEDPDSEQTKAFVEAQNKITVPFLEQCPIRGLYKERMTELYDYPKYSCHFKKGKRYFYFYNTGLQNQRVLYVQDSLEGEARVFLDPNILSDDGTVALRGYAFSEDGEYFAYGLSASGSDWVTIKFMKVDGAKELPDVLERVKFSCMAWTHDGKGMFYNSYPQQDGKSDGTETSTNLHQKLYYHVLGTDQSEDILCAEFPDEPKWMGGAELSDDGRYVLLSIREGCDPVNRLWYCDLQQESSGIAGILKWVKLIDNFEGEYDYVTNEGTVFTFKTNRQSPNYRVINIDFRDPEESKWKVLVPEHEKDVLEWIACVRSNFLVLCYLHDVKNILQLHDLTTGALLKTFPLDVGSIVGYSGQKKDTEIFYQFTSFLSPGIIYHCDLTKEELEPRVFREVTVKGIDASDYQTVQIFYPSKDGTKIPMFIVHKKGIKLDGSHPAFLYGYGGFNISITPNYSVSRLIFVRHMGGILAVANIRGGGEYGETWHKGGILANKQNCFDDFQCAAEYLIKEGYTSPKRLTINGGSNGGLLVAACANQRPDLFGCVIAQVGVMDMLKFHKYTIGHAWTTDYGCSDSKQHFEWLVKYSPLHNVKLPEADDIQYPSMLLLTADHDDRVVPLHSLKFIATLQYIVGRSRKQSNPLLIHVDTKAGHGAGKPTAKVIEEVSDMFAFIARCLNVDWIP
Assay: Biochemical human prolyl endopeptidase (PREP) assay with fluorescently labelled substrate
Details: substrate Z-Gly-Pro-AMC 50 μM, 32° C., 60 min; some as mean values from multiple independent determinations
Experimental: B-1 Biochemical Human Prolyl Endopeptidase (PREP) Assay for Identification of Inhibitors of PREP Activity Using a Fluorescently Labelled Substrate Principle of the Assay:
The enzymatic conversion of the fluorescent peptide substrate was observed on the basis of the measurement of the fluorescence intensity. The enzyme activity was determined by the ascertaining of the initial slope in the increase in fluorescence. Compounds that inhibit PREP were identified on the basis of the decrease in the initial slope compared to a reaction mixture without test compound.
Determination of Activity:
IC50 values were determined by the plotting of the percentage PREP activity against the concentration of the test substance by interpolation.
To recombinant full-length human prolyl endopeptidase (PREP, R&D-Systems, 4308-SE; final concentration, for example, 0.4 nM, volume: 25 μl) in reaction buffer (50 mM Tris-HCl, pH 7.5; 150 mM NaCl; 0.13% BSA, 5 mM EDTA, 3 mM GSH, 0.005% Brij-35) was added a test compound (in DMSO, in an appropriate final concentration range from 1 nM to 30 μM, volume: 1 μl) in a well of a 384-well microtitre plate. The reaction was initiated by adding the substrate Z-Gly-Pro-AMC (final concentration 50 μM; Z=carboxybenzyl; AMC=7-amino-4-methylcoumarin, volume: 25 μl). The progress of the PREP reaction was observed by measuring the fluorescence intensity in a Tecan SAFIRE II plate spectrophotometer at 32° C. over a period of 60 min (excitation wavelength: 360 nm, emission wavelength: 465 nm).
Table B-1 below collates the IC50 values thus obtained from the human prolyl endopeptidase assay for individual working examples of the invention (some as mean values from multiple independent individual determinations).

| Compound | IC50 [nM] |
| --- | --- |
| Cc1ccc(Cn2nc3n(c2=O)C(C(=O)N2CC(F)(F)C2)CCC3)cc1 (single isomer, unassigned) [Example 115, (5RS)-5-[(3,3-Difluoroazetidin-1-yl)carbonyl]-2-(4-methylbenzyl)-5,6,7,8-tetrahydro[1,2,4]triazolo[4,3-a]pyridin-3(2H)-one] | 1.1 |
| CC1Cc2nn(Cc3ccc(F)c(Cl)c3)c(=O)n2C(C(=O)N2CCC(F)(F)C2)C1 (racemic) [Example 331, (5RS,7RS)-2-(3-Chloro-4-fluorobenzyl)-5-[(3,3-difluoropyrrolidin-1-yl)carbonyl]-7-methyl-5,6,7,8-tetrahydro[1,2,4]triazolo[4,3-a]pyridin-3(2H)-one] | 0.68 |
| O=C(C1CC(C(F)(F)F)Cc2nn(Cc3ncc(F)cc3Cl)c(=O)n21)N1CCC(F)(F)C1 (single isomer, unassigned) [Example 576, (5RS,7RS)-2-[(3-Chloro-5-fluoropyridin-2-yl)methyl]-5-[(3,3-difluoropyrrolidin-1-yl)carbonyl]-7-(trifluoromethyl)-5,6,7,8-tetrahydro[1,2,4]triazolo[4,3-a]pyridin-3(2H)-one] | 8.7 |
| O=C(C1C(C(F)(F)F)CCc2nn(Cc3ncc(Cl)cc3Cl)c(=O)n21)N1CC[C@H](F)C1 (single isomer, unassigned) [Example 283] | 6.2 |
| O=C([C@@H]1CCCc2nn(CCc3ccc(F)cc3)c(=O)n21)N1CC(F)C1 [Example 520, (5S)-5-[(3-Fluoroazetidin-1-yl)carbonyl]-2-[2-(4-fluorophenyl)ethyl]-5,6,7,8-tetrahydro[1,2,4]triazolo[4,3-a]pyridin-3(2H)-one] | 1.7 |
| O=C([C@@H]1CCc2nn(Cc3ccc(F)c(Cl)c3)c(=O)n21)N1CCCC1 [Example 51, (5S)-2-(3-Chloro-4-fluorobenzyl)-5-(pyrrolidin-1-ylcarbonyl)-2,5,6,7-tetrahydro-3H-pyrrolo[2,1-c][1,2,4]triazol-3-one] | 0.89 |
| Cc1ccc(Cn2nc3n(c2=O)C(C(=O)N2CCCCC2)CCC3)cc1 (racemic) [Example 161, (5RS)-2-(4-Methylbenzyl)-5-(piperidin-1-ylcarbonyl)-5,6,7,8-tetrahydro[1,2,4]triazolo[4,3-a]pyridin-3(2H)-one] | 37 |
| Cc1ccccc1Cn1nc2n(c1=O)C(C(=O)N1CCCC1)CCC2 (racemic) [Example 58, (5RS)-2-(2-Methylbenzyl)-5-(pyrrolidin-1-ylcarbonyl)-5,6,7,8-tetrahydro[1,2,4]triazolo[4,3-a]pyridin-3(2H)-one] | 4 |
| O=C([C@@H]1CCCc2nn(Cc3ccc(Cl)nc3)c(=O)n21)N1CC[C@H](F)C1 [Example 422, (5S)-2-[(6-Chloropyridin-3-yl)methyl]-5-{[(3S)-3-fluoropyrrolidin-1-yl]carbonyl}-5,6,7,8-tetrahydro[1,2,4]triazolo[4,3-a]pyridin-3(2H)-one] | 0.63 |
| O=C(C1CCCc2nn(Cc3ccc(Cl)cn3)c(=O)n21)N1CCCC1 (single isomer, unassigned) [Example 34, (5RS)-2-[(5-Chloropyridin-2-yl)methyl]-5-(pyrrolidin-1-ylcarbonyl)-5,6,7,8-tetrahydro[1,2,4]triazolo[4,3-a]pyridin-3(2H)-one] | 7.5 |
| O=C([C@@H]1CCCc2nn(Cc3ccc(F)cc3Cl)c(=O)n21)N1CC[C@H](F)C1 [Example 475, (5S)-2-(2-Chloro-4-fluorobenzyl)-5-{[(3S)-3-fluoropyrrolidin-1-yl]carbonyl}-5,6,7,8-tetrahydro[1,2,4]triazolo[4,3-a]pyridin-3(2H)-one] | 0.33 |
| O=C(C1CC(C(F)(F)F)Cc2nn(Cc3ccnc(C(F)(F)F)c3F)c(=O)n21)N1C[C@@H](F)[C@@H](F)C1 (single isomer, unassigned) [Example 261] | 1 |
| O=C(C1CC(C(F)(F)F)Cc2nn(Cc3ncc(F)cc3F)c(=O)n21)N1CC[C@H](F)C1 (mixture of isomers) [Example 569, (5RS,7RS)-2-[(3,5-Difluoropyridin-2-yl)methyl]-5-{[(3S)-3-fluoropyrrolidin-1-yl]carbonyl}-7-(trifluoromethyl)-5,6,7,8-tetrahydro[1,2,4]triazolo[4,3-a]pyridin-3(2H)-one] | 0.85 |
| N#C[C@@H]1CCCN1C(=O)[C@@H]1CCCc2nn(Cc3csc(C(F)(F)F)n3)c(=O)n21 [Example 367, (2S)-1-{[(5S)-3-Oxo-2-{[2-(trifluoromethyl)-1,3-thiazol-4-yl]methyl}-2,3,5,6,7,8-hexahydro[1,2,4]triazolo[4,3-a]pyridin-5-yl]carbonyl}pyrrolidine-2-carbonitrile] | 0.425 |
| O=C([C@@H]1CCCc2nn(Cc3ccc(Cl)nc3)c(=O)n21)N1CCC2CC21 (single isomer, unassigned) [Example 198] | 1.03 |
| O=C([C@@H]1CCCc2nn(Cc3cccc(Br)c3)c(=O)n21)N1C[C@@H](F)[C@@H](F)C1 [Example 211, (5S)-2-(3-Bromobenzyl)-5-{[(3R,4S)-3,4-difluoropyrrolidin-1-yl]carbonyl}-5,6,7,8-tetrahydro[1,2,4]triazolo[4,3-a]pyridin-3(2H)-one] | 0.15 |
| O=C(C1C(C(F)(F)F)CCc2nn(Cc3ccnc(C(F)(F)F)c3F)c(=O)n21)N1CC[C@H](F)C1 (single isomer, unassigned) [Example 281] | 2.2 |
| O=C([C@@H]1CCCc2nn(Cc3cncc(C(F)(F)F)c3)c(=O)n21)N1CC[C@H](F)C1 [Example 515, (5S)-5-{[(3S)-3-Fluoropyrrolidin-1-yl]carbonyl}-2-{[5-(trifluoromethyl)pyridin-3-yl]methyl}-5,6,7,8-tetrahydro[1,2,4]triazolo[4,3-a]pyridin-3(2H)-one] | 0.59 |
| O=C([C@@H]1CCCc2nn(Cc3cc(C(F)(F)F)ccn3)c(=O)n21)N1CCCC1 [Example 93, (5S)-5-(Pyrrolidin-1-ylcarbonyl)-2-{[4-(trifluoromethyl)pyridin-2-yl]methyl}-5,6,7,8-tetrahydro[1,2,4]triazolo[4,3-a]pyridin-3(2H)-one] | 6 |
| O=C([C@@H]1CCCc2nn(Cc3ccc(F)cc3F)c(=O)n21)N1CC[C@H](F)C1 [Example 488, (5S)-2-(2,4-Difluorobenzyl)-5-{[(3S)-3-fluoropyrrolidin-1-yl]carbonyl}-5,6,7,8-tetrahydro[1,2,4]triazolo[4,3-a]pyridin-3(2H)-one] | 0.15 |
| O=C([C@@H]1CCCc2nn(Cc3ccnc(C(F)(F)F)c3F)c(=O)n21)N1C[C@@H](F)[C@@H](F)C1 [Example 480, (5S)-5-{[(3R,4S)-3,4-Difluoropyrrolidin-1-yl]carbonyl}-2-{[3-fluoro-2-(trifluoromethyl)pyridin-4-yl]methyl}-5,6,7,8-tetrahydro[1,2,4]triazolo[4,3-a]pyridin-3(2H)-one] | 0.52 |
| O=C(C1CCC(C(F)(F)F)c2nn(Cc3ccc(C(F)(F)F)nc3)c(=O)n21)N1C[C@@H](F)[C@@H](F)C1 (mixture of isomers) [Example 270, (5RS,8RS)-5-{[(3R,4S)-3,4-Difluoropyrrolidin-1-yl]carbonyl}-8-(trifluoromethyl)-2-{[6-(trifluoromethyl)pyridin-3-yl]methyl}-5,6,7,8-tetrahydro[1,2,4]triazolo[4,3-a]pyridin-3(2H)-one] | 2 |
